Source: ChEMBL document CHEMBL2406925, “Confirmation of quinolone-induced formation of gyrase-DNA conjugates using AFM” (Bioorg Med Chem Lett, 2013)
Activity calls are given as the source filed them. No cut-off for these calls is given here.

Tests used:
[1] = test system: Escherichia coli; assay: Stabilization of reversible Escherichia coli DNA gyrase-pBR322 DNA complex at 20 uM after 15 mins by AFM image analysis
[2] = test system: Escherichia coli; assay: Induction of Escherichia coli DNA gyrase-mediated pBR322 DNA cleavage at 5 to 20 uM after 30 mins by agarose gel electrophoresis

For `CCn1cc(C(=O)O)c(=O)c2cc(F)c(N3CCNCC3)cc21`, the Activity [1] was “Active” and the Activity [2] was “Active”.
